According to patent publication US20060142239A1, “Potassium or sodium salt of (-)-2-(4-hydroxyphenyl)ethyl!-thio-3-'4-{4-'(methzlsulfonzl)oxy !phenoxy}phenyl!propanoic acid and their use in medicine” (priority 2003, published 2006):

How the values were obtained:
[1] = test system: SC LS-174T tumours; assay: Human LS-174T colon tumour xenografts in Nude mice, tumour growth delay; format: in vivo; details: ZD6126 200 mg/kg IP, 5-FU 75 mg/kg IV, CPT-11 25 mg/kg IV; for MEDIAN TIME TO REACH TUMOUR SIZE OF 2 CM^3: SC LS-174T xenografts in Nude mice, weekly x3 (Days 1, 8, 15), in combinations ZD6126 2 hours after the other agent; for T - C (DAYS), tumour growth delay: difference in median time to reach 2 cm^3, treatment vs vehicle control, weekly x3
Description: Human LS-174T Colon Tumour Xenografts in Nude Mice […] Mice were randomised into 6 groups of 15-18 mice per group. Group 1—control Group 2—received 3 weekly intraperitoneal (IP) injections of ZD6126 at 200 mg/kg on Days 1, 8 and 15 Group 3—received 3 weekly intravenous (IV) injections of 5-FU at 75 mg/kg on Days 1, 8 and 15 Group 4—received 3 weekly IV injections of CPT-11 alone at 25 mg/kg on Days 1, 8 and 15. Group 5—received 3 weekly IP injections of ZD6126 at 200 mg/kg on Days 1, 8 and 15 and 3 weekly IV injections of 5-FU at 75 mg/kg Days 1, 8 and 15. Group 6—received 3 weekly IP injections of ZD6126 at 200 mg/kg on Days 1, 8 and 15 and 3 weekly IV injections of CPT-11 at 25 mg/kg on Days 1, 8 and 15. In groups 5 and 6, when animals received both ZD6126 and CPT-11 or 5-FU on the same day, the ZD6126 was administered 2 hours after the CPT-11 or 5-FU. [table] For all animals, the tumour size was measured twice a week with calipers, and the tumour volume (mm^3) was estimated according to the formula: {[(Square root of Length×Width)×(Length×Width)]×0.5236}. The mice were sacrificed when tumours grew beyond 10% of bodyweight. Treatment efficacy was assessed in terms of the effects on the tumour volumes of treated mice relative to vehicle-treated mice and expressed as growth delay. Growth delay T-(C) was calculated as the difference in the median growth time of the treatment group (T) and the vehicle control group (C) to reach a tumor size of 2 cm^3.

[2] = test system: tumour vasculature; details: reported in Proc. Am. Assoc. Cancer Res. 2000; 41: 329; cited from earlier work

SMILES | MEDIAN TIME TO REACH TUMOUR SIZE OF 2 CM^3 [1] | T - C (DAYS), tumour growth delay [1] | effect on tumour vasculature [2]
O=c1[nH]cc(F)c(=O)[nH]1 [5-FU, 5-fluorouracil] | 14 days | 5 days | 
COc1cc2c(c(OC)c1OC)-c1ccc(OP(=O)(O)O)cc1[C@@H](NC(C)=O)CC2 [ZD6126, (5S)-5-(acetylamino)-9,10,11-trimethoxy-6,7-dihydro-5H-dibenzo[a,c]cyclohepten-3-yl dihydrogen phosphate] | 17 days | 8 days | selectively disrupts tumour vasculature leading to vessel occlusion and extensive tumour necrosis
CCc1c2c(nc3ccc(OC(=O)N4CCC(N5CCCCC5)CC4)cc13)-c1cc3c(c(=O)n1C2)COC(=O)[C@]3(O)CC [CPT-11, irinotecan] | 17 days | 8 days | 
